The values that follow come from US9868720B2 (Genentech, Inc., priority 2013, dated 2018).

What is called Ki is a measure of affinity in units of concentration, obtained from inhibition or displacement.

In this assay the target is DLK kinase (N-terminally GST-tagged DLK, catalytic domain amino acid 1-520) (Homo sapiens (Human), UniProt Q12852). As to the kind of experiment: DLK TR-FRET assay. The format is biochemical. The following applies: 30 μM ATP, MKK4 K131M substrate, read-out: DLK HTRF (Ki). The protocol: DLK TR-FRET assay: DLK kinase reactions (20 μL) containing 5 nM N-terminally GST-tagged DLK (catalytic domain amino acid 1-520) (Carna Bioscience), 40 nM N-terminally HIS-tagged MKK4 K131M substrate, and 30 μM ATP in kinase reaction buffer (50 mM HEPES, pH 7.5, 0.01% Triton X-100, 0.01% Bovine γ-Globulins, 2 mM DTT, 10 mM MgCl2 and 1 mM EGTA), and testing compound 1:3 serial diluted starting at 20 uM were incubated at ambient temperature for 60 minutes in 384 well OptiPlate (Perkin Elmer). To quench kinase reactions and detect phosphorylated MKK4, 15 μL of TR-FRET antibody mixture containing 2 nM anti-phosphorylated MKK4 labeled with Europium cryptate (Cisbio) and 23 nM anti-HIS labeled with D2 (Cisbio) in detection buffer (25 mM Tris pH 7.5, 100 mM NaCl, 100 mM EDTA, 0.01% Tween-20, and 200 mM KF) was added to the reaction mixture. The detection mixture was incubated for 3 hours at ambient temperature and the TR-FRET was detected with an EnVision multilabel plate reader (Perkin-Elmer) using the LANCE/DELFIA Dual Enh label from Perkin-Elmer (excitation filter: UV2 (TRF) 320 and emission filters: APC 665 and Europium 615).

Structures are written as SMILES.

DLK kinase (N-terminally GST-tagged DLK, catalytic domain amino acid 1-520), sequence (Q12852 1-520): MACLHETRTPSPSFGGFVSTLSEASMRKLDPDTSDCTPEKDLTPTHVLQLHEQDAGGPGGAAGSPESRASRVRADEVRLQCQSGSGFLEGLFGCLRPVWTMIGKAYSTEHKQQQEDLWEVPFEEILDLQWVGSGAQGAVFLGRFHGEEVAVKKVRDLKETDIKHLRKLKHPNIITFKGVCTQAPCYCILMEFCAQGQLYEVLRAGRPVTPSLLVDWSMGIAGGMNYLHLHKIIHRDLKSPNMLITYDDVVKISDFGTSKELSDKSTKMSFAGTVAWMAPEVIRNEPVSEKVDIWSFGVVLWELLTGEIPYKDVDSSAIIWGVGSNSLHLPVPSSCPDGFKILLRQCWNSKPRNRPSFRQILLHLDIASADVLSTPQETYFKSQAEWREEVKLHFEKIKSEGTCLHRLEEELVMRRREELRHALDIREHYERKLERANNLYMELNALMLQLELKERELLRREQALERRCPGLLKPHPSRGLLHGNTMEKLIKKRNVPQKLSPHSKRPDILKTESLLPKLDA

Take `FC(F)(F)c1ccnc(Nc2cc(C3CCNC3)nc(N3CCCC3)n2)c1` (stereo not drawn) [Example 66, (2-Pyrrolidin-1-yl-6-pyr-rolidin-3-yl-pyrimidin-4-yl)-(4-trifluoromethyl-pyridin-2-yl)-amine]: the inhibition constant Ki was 4.8 nM.

`CC(=O)N1CCCC(c2cc(Nc3cc(C)ccn3)nc(N3CCC3)n2)C1` (stereo not drawn) [Example 87, 1-{3-[2-Azetidin-1-yl-6-(4-methyl-pyridin-2-ylamino)-pyrimidin-4-yl]-piperidin-1-yl}-ethanone]: the Ki was found to be 262 nM. For the compound `CC(=O)N1CCC(c2cc(Nc3cc(C)ccn3)nc(N3CCCC3)n2)C1` (stereo not drawn) [Example 89, 1-{3-[6-(4-Methyl-pyridin-2-ylamino)-2-pyrrolidin-1-yl-pyrimidin-4-yl]-pyrrolidin-1-yl}-ethanone], the Ki stood at 59 nM. As to `CC(=O)N1CCC(c2cc(Nc3cc(C)ccn3)nc(N3CCCCC3)n2)C1` (stereo not drawn) [Example 90, 1-{3-[6-(4-Methyl-pyridin-2-ylamino)-2-piperidin-1-yl-pyrimidin-4-yl]-pyrrolidin-1-yl}-ethanone], the Ki stood at 104 nM. The same measure for `FC1(F)CCCN(c2nc(Nc3cc(C(F)(F)F)ccn3)cc(C3CCNC3)n2)C1` (stereo not drawn) [Example 96, [2-(3,3-Difluoro-piperidin-1-yl)-6-pyrrolidin-3-yl-pyrimidin-4-yl]-(4-tri-fluoromethyl-pyridin-2-yl)-amine]: 3.1 nM. The same measure for `N#CC1(c2cc(Nc3cc(C(F)(F)F)ccn3)nc(N3CCC(F)(F)C3)n2)CCNCC1` [Example 105, 4-[2-(3,3-Difluoro-pyr-rolidin-1-yl)-6-(4-trifluoro-methyl-pyridin-2-ylamino)-pyrimidin-4-yl]-piperidine-4-carbonitrile]: 11.7 nM. `CC(=O)N1CCCC(c2cc(Nc3cc(C)ccn3)nc(-c3ccccc3)n2)C1` (stereo not drawn) [Example 106, 1-{3-[6-(4-Methyl-pyridin-2-ylamino)-2-phenyl-pyrimidin-4-yl]-piperidin-1-yl}-ethanone]: the Ki was found to be 30.7 nM. In the case of `C[C@@H]1CCCN1c1nc(Nc2cc(C(F)(F)F)ccn2)cc(C2CCNCC2)n1` [Example 111, [2-((R)-2-Methyl-pyrrolidin-1-yl)-6-piperidin-4-yl-pyrimidin-4-yl]-(4-trifluoromethyl-pyridin-2-yl)-amine], the Ki is 0.85 nM. Take `C[C@H]1CCCN1c1nc(Nc2cc(C(F)(F)F)ccn2)cc(C2CCNCC2)n1` [Example 112, [2-((S)-2-Methyl-pyrrolidin-1-yl)-6-piperidin-4-yl-pyrimidin-4-yl]-(4-trifluoromethyl-pyridin-2-yl)-amine]: the Ki amounted to 15.8 nM. For the compound `FC1(F)CCN(c2nc(Nc3cc(Cl)ccn3)cc(C3CCNCC3)n2)C1` [Example 120, (4-Chloro-pyridin-2-yl)-[2-(3,3-difluoro-pyrrolidin-1-yl)-6-piperidin-4-yl-pyrimidin-4-yl]-amine], the Ki is 8.55 nM. For the compound `COc1ccnc(Nc2cc(C3CCNCC3)nc(N3CCCC3C)n2)c1` (stereo not drawn) [Example 125, (4-Methoxy-pyridin-2-yl)-[2-(2-methyl-pyrrolidin-1-yl)-6-piperidin-4-yl-pyrimidin-4-yl]-amine], the Ki is 15.2 nM. The same measure for `COc1ccnc(Nc2cc(C3CCN(C(C)=O)C3)nc(N3CCCC3C)n2)c1` (stereo not drawn) [Example 129, 1-{3-[6-(4-Methoxy-pyridin-2-ylamino)-2-(2-methyl-pyrrolidin-1-yl)-pyrimidin-4-yl]-pyrrolidin-1-yl}-ethanone]: 100 nM; for `C[C@@H]1CC[C@@H](C)N1c1nc(Nc2cc(C(F)(F)F)ccn2)cc(C2CCNCC2)n1` [Example 143, [2-((2R,5R)-2,5-Dimethyl-pyrrolidin-1-yl)-6-piperidin-4-yl-pyrimidin-4-yl]-(4-trifluoromethyl-pyridin-2-yl)-amine]: 10.4 nM; for `CC(C)c1nc(Nc2cc(C(F)(F)F)ccn2)cc(C2CCCN(C)C2)n1` (stereo not drawn) [Example 145, [2-Isopropyl-6-(1-methyl-piperidin-3-yl)-pyrimidin-4-yl]-(4-trifluoro-methyl-pyridin-2-yl)-amine]: 141 nM. The same measure for `CC(=O)N1CCC(C#N)(c2cc(Nc3cc(C(F)(F)F)ccn3)nc(N3CCC(F)(F)C3)n2)CC1` [Example 156, 1-Acetyl-4-[2-(3,3-difluoro-pyrrolidin-1-yl)-6-(4-trifluoromethyl-pyridin-2-ylamino)-pyrimidin-4-yl]-piperidine-4-carbonitrile]: 26.9 nM.

For the compound `CN1CCC(c2cc(Nc3cc(C(F)(F)F)ccn3)nc(N3CCC(F)(F)C3)n2)CC1` [Example 160, [2-(3,3-Difluoro-pyrrolidin-1-yl)-6-(1-methyl-piperidin-4-yl)-pyrimidin-4-yl]-(4-trifluoromethyl-pyridin-2-yl)-amine], the inhibition constant Ki was determined as 4.42 nM.

Consider `C[C@@H]1CCCN1c1nc(Nc2cc(C(F)(F)F)ccn2)cc(C2CCN(C)CC2)n1` [Example 169, [6-(1-Methyl-piperidin-4-yl)-2-((R)-2-methyl-pyrrolidin-1-yl)-pyrimidin-4-yl]-(4-trifluoromethyl-pyridin-2-yl)-amine], for which the Ki was 0.4 nM. The same measure for `N#CCC(=O)N1CCCC(c2cc(Nc3cc(C(F)(F)F)ccn3)nc(C3CC3)n2)C1` (stereo not drawn) [Example 173, 3-{3-[2-Cyclopropyl-6-(4-trifluoromethyl-pyridin-2-ylamino)-pyrimidin-4-yl]-piperidin-1-yl}-3-oxo-propionitrile]: 37 nM.

Consider `CC(=O)N1CCC(c2cc(Nc3cc(C(F)(F)F)ccn3)nc(N3CCC[C@H]3C)n2)CC1` [Example 175, 1-{4-[2-((R)-2-Methyl-pyrrolidin-1-yl)-6-(4-trifluoromethyl-pyridin-2-ylamino)-pyrimidin-4-yl]-piperidin-1-yl}-ethanone], for which the inhibitory constant (Ki) stood at 2.2 nM. To `CC1CCCN1c1nc(Nc2cc(C(F)(F)F)ccn2)cc(C2CCN(C(=O)CC#N)CC2)n1` (stereo not drawn) [Example 177, 3-{4-[2-(2-Methyl-pyrrolidin-1-yl)-6-(4-trifluoromethyl-pyridin-2-ylamino)-pyrimidin-4-3yl]-piperidin-1-yl}-3-oxo-propionitrile] belongs 8.03 nM; to `O=C(C(F)F)N1CCCC(c2cc(Nc3cc(C(F)(F)F)ccn3)nc(N3CCC(F)(F)C3)n2)C1` (stereo not drawn) [Example 178, 1-{3-[2-(3,3-Difluoro-pyrrolidin-1-yl)-6-(4-trifluoromethyl-pyridin-2-ylamino)-pyrimidin-4-yl]-piperidin-1-yl}-2,2-difluoro-ethanone], 26.8 nM; to `CC1CC1C(=O)N1CCC(c2cc(Nc3cc(C(F)(F)F)ccn3)nc(N3CCC(F)(F)C3)n2)C1` (stereo not drawn) [Example 180], 46.2 nM. Take `O=C(C1CC1)N1CCC(c2cc(Nc3cc(C(F)(F)F)ccn3)nc(N3CCC(F)(F)C3)n2)C1` (stereo not drawn) [Example 184, Cyclopropyl-{3-[2-(3,3-difluoro-pyrrolidin-1-yl)-6-(4-trifluoromethyl-pyridin-2-ylamino)-pyrimidin-4-yl}-pyrrolidin-1-yl}-methanone]: the Ki stood at 41.5 nM. `CC(C)Cc1nc(Nc2cc(C(F)(F)F)ccn2)cc(C2CCCN(C(=O)C(F)F)C2)n1` (stereo not drawn) [Example 195, 2,2-Difluoro-1-{3-[2-isobutyl-6-(4-trifluoromethyl-pyridin-2-ylamino)-pyrimidin-4-yl]-piperidin-1-yl}-ethanone]: the inhibition constant (Ki) stood at 143 nM. Consider `CC(C)(C)c1ccnc(Nc2cc(C3CCNCC3)nc(N3CCC(F)(F)C3)n2)c1` [Example 200, (4-tert-Butyl-pyridin-2-yl)-[2-(3,3-difluoro-pyrrolidin-1-yl)-6-piperidin-4-yl-pyrimidin-4-yl]-amine], for which the Ki turned out to be 8.34 nM. The same measure for `FC1(F)CCN(c2nc(Nc3cc(-c4cccs4)ccn3)cc(C3CCNCC3)n2)C1` [Example 201, [2-(3,3-Difluoro-pyrrolidin-1-yl)-6-piperidin-4-yl-pyrimidin-4-yl]-(4-thiophen-2-yl-pyridin-2-yl)-amine]: 3.2 nM; for `C[C@@H]1CCCN1c1nc(Nc2cc(C3CC3)ccn2)cc(C2CCNCC2)n1` [Example 202, (4-Cyclopropyl-pyridin-2-yl)-[2-((R)-2-methyl-pyrrolidin-1-yl)-6-piperidin-4-yl-pyrimidin-4-yl]-amine]: 0.95 nM. The same measure for `CC1CCCN1c1nc(Nc2cc(C(F)(F)F)ccn2)cc(C2CCN(C(=O)Cn3ccnc3)C2)n1` (stereo not drawn) [Example 204, 2-Imidazol-1-yl-1-{3-[2-(2-methyl-pyrrolidin-1-yl)-6-(4-trifluoromethyl-pyridin-2-ylamino)-pyrimidin-4-yl]-pyrrolidin-1-yl}-ethanone]: 7.69 nM. To `CC(=O)N1CCC(c2cc(Nc3cc(C(F)(F)F)ccn3)nc(N3CCC(C(F)(F)F)C3)n2)CC1` (stereo not drawn) [Example 206, 1-{4-[6-(4-Trifluoromethyl-pyridin-2-ylamino)-2-(3-trifluoromethyl-pyrrolidin-1-yl)-pyrimidin-4-yl]-piperidin-1-yl}-ethanone] belongs 43.3 nM; to `N#CC1(c2cc(Nc3cc(C(F)(F)F)ccn3)nc(Nc3cc(C(F)(F)F)ccn3)n2)CCOCC1` [Example 208, 4-[2,6-Bis-(4-trifluoro-methyl-pyridin-2-ylamino)-pyrimidin-4-yl]-tetrahydro-pyran-4-carbonitrile], 322 nM.
